The text below walks through data of patent US8299048B2, “Hexahydrocyclopentyl[f]indazole sulfonamides and derivatives thereof as selective glucocorticoid receptor modulators” (Merck Sharp & Dohme Corp., priority 2008, dated 2012).

This test addresses T1, glucocorticoid receptor (Homo sapiens, UniProt P04150).
T1 construct: endogenous in cells
T1 sequence (P04150 1-777): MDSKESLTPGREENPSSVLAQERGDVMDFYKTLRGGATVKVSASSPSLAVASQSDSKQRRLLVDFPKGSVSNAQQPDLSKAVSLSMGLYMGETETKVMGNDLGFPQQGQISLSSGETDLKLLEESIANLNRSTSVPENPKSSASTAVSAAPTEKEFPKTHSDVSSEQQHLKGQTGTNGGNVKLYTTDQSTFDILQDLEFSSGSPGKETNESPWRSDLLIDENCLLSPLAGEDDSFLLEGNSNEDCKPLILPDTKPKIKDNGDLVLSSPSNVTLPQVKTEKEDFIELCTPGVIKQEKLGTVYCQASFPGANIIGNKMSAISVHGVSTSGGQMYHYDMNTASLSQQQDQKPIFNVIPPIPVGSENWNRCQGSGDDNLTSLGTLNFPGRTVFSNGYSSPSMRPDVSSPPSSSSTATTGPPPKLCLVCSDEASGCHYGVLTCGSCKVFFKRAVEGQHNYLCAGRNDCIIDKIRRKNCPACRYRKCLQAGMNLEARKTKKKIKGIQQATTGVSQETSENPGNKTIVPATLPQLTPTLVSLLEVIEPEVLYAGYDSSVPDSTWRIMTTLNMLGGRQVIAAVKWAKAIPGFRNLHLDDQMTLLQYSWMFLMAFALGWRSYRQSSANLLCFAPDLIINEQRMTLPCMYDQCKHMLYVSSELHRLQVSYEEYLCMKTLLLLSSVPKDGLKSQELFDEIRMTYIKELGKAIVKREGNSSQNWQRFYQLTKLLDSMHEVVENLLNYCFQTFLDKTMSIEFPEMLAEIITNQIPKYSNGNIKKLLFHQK
Nature of the test: Ligand binding assay (GR BIND). Here is the method: • Materials: • Binding Buffer: TEGM (10 mM Tris-HCl, 1 mM EDTA, 10% glycerol, 1 mM beta-mecaptoethanol, 10 mM Sodium Molybdate, pH 7.2) • 50% HAP Slurry: Calbiochem Hydroxylapatite, Fast Flow, in 10 mM Tris, pH 8.0 and 1 mM EDTA. • Wash Buffer: 40 mM Tris, pH7.5, 100 mM KCl, 1 mM EDTA and 1 mM EGTA.
Phenol red-free Trypsin-EDTA is diluted in the same PBS1:10. The cell layers are rinsed with 1× Trypsin, extra Trypsin is poured out, and the cell layers are incubated at 37° C. for ˜2 min. The flask is tapped and checked for signs of cell detachment. Once the cells begin to slide off the flask, the complete media is added. The cells are counted at this point, then diluted to the appropriate concentration and split into flasks or dishes for further culturing (Usually 1:3 to 1:6 dilution).
When the cells are 70 to 85% confluent, they are detached as described above, and collected by centrifuging at 1000 g for 10 minutes at 4° C. The cell pellet is washed twice with TEGM (10 mM Tris-HCl, 1 mM EDTA, 10% glycerol, 1 mM beta-mercaptoethanol, 10 mM Sodium Molybdate, pH 7.2). After the final wash, the cells are resuspended in TEGM at a concentration of 10^7 cells/mL. The cell suspension is snap frozen in liquid nitrogen or ethanol/dry ice bath and transferred to −80° C. freezer on dry ice. Before setting up the binding assay, the frozen samples are left on ice-water to just thaw (˜1 hr). Then the samples are centrifuged at 12,500 g to 20,000 g for 30 min at 4° C. The supernatant is used to set-up assay right away. If using 50 μL of supernatant, the test compound can be prepared in 50 μL of the TEGM buffer.
1×TEGM buffer is prepared, and the isotope-containing assay mixture is prepared in the following order: EtOH (2% final concentration in reaction), 3H-DEX (Amersham Biosciences) and 1×TEGM. [e.g. For 100 samples, 200 μL (100×2) of EtOH+4.25 μL of 1:10 ^3H—Dex stock+2300 μL (100×23) 1×TEGM]. The compound is serially diluted, e.g., if starting final conc. is 1 μM, and the compound is in 25 μL of solution, for duplicate samples, 75 μL of 4×1 μM solution is made and 3 μL of 100 μM is added to 72 μL of buffer, and 1:5 serial dilution.
25 μL of ^3H-DEX (6 nM) trace and 25 μL compound solution are first mixed together, followed by addition of 50 μL receptor solution. The reaction is gently mixed, spun briefly at about 200 rpm and incubated at 4° C. overnight. 100 μL of 50% HAP slurry is prepared and added to the incubated reaction which is then vortexed and incubated on ice for 5 to 10 minutes. The reaction mixture is vortexed twice more to resuspend HAP while incubating reaction. The samples in 96-well format are then washed in wash buffer using The FilterMate™ Universal Harvester plate washer (Packard). The washing process transfers HAP pellet containing ligand-bound expressed receptor to Unifilter-96 GF/B filter plate (Packard). The HAP pellet on the filter plate is incubated with 50 μL of MICROSCINT (Packard) scintillint for 30 minutes before being counted on the TopCount microscintillation counter (Packard). […] are calculated using DEX as a reference.

Compound `C[C@]12Cc3cnn(-c4ccc(F)cc4)c3C=C1CC[C@@H]2CN(CC1CC1)S(=O)(=O)c1cc(C(F)(F)F)ccc1Cl` [Example 5, 2-chloro-N-(cyclopropylmethyl)-N-{[(4αR,5S)-1-(4-fluorophenyl)-4α-methyl-1,4,4α,5,6,7-hexahydrocyclopenta[f]indazol-5-yl]methyl}-5-(trifluoromethyl)benzenesulfonamide] returned an inhibition constant Ki of 1 nM.
Next, `CC(=O)Nc1ccc(S(=O)(=O)N(CC2CC2)C[C@H]2CCC3=Cc4c(cnn4-c4ccc(F)cc4)C[C@@]32C)cc1` [Example 6, N-{4-[((cyclopropylmethyl){[(4αR,5S)-1-(4-fluorophenyl)-4α-methyl-1,4,4α,5,6,7-hexahydrocyclopenta[f]indazol-5-yl]methyl}amino)sulfonyl]phenyl}acetamide]: 0.9 nM.
The value for `Cc1nn(C)c(Cl)c1S(=O)(=O)N(CC1CC1)C[C@H]1CCC2=Cc3c(cnn3-c3ccc(F)cc3)C[C@@]21C` [Example 7] was 0.4 nM.
The compound `CN1CCOc2cc(S(=O)(=O)N(CC3CC3)C[C@H]3CCC4=Cc5c(cnn5-c5ccc(F)cc5)C[C@@]43C)ccc21` [Example 8, N-(cyclopropylmethyl)-N-{[(4αR,5S)-1-(4-fluorophenyl)-4α-methyl-1,4,4α,5,6,7-hexahydrocyclopenta[f]indazol-5-yl]methyl}-4-methyl-3,4-dihydro-2H-1,4-benzoxazine-7-sulfonamide] displayed an inhibition constant Ki of 1.9 nM.
The compound `CCCCCc1ccc(S(=O)(=O)N(CC2CC2)C[C@H]2CCC3=Cc4c(cnn4-c4ccc(F)cc4)C[C@@]32C)cc1` [Example 9, N-(cyclopropylmethyl)-N-{[(4αR,5S)-1-(4-fluorophenyl)-4α-methyl-1,4,4α,5,6,7-hexahydrocyclopenta[f]indazol-5-yl]methyl}-4-pentylbenzenesulfonamide] showed a Ki of 2.2 nM.
The value for `C[C@]12Cc3cnn(-c4ccc(F)cc4)c3C=C1CC[C@@H]2CN(CC1CC1)S(=O)(=O)c1ccc(-c2ccccc2)cc1` [Example 10, N-(cyclopropylmethyl)-N-{[(4αR,5S)-1-(4-fluorophenyl)-4α-methyl-1,4,4α,5,6,7-hexahydrocyclopenta[f]indazol-5-yl]methyl}biphenyl-4-sulfonamide] was 0.7 nM.
The value for `Cc1noc(C)c1S(=O)(=O)N(CC1CC1)C[C@H]1CCC2=Cc3c(cnn3-c3ccc(F)cc3)C[C@@]21C` [Example 11, N-(cyclopropylmethyl)-N-{[(4αR,5S)-1-(4-fluorophenyl)-4α-methyl-1,4,4α,5,6,7-hexahydrocyclopenta[f]indazol-5-yl]methyl}-3,5-dimethylisoxazole-4-sulfonamide] was 0.7 nM; that for `CCCS(=O)(=O)N(CCOC)C[C@H]1CCC2=Cc3c(cnn3-c3ccc(F)cc3)C[C@@]21C` [Example 95, N-{[(4αR,5S)-1-(4-fluorophenyl)-4α-methyl-1,4,4α,5,6,7-hexahydrocyclopenta[f]indazol-5-yl]methyl}-N-(2-methoxyethyl)propane-1-sulfonamide] was 5.2 nM; that for `COCCN(C[C@H]1CCC2=Cc3c(cnn3-c3ccc(F)cc3)C[C@@]21C)S(C)(=O)=O` [Example 96, N-{[(4αR,5S)-1-(4-fluorophenyl)-4α-methyl-1,4,4α,5,6,7-hexahydrocyclopenta[f]indazol-5-yl]methyl}-N-(2-methoxyethyl)methanesulfonamide] was 1.1 nM.
Take `COCCN(C[C@H]1CCC2=Cc3c(cnn3-c3ccc(F)cc3)C[C@@]21C)S(=O)(=O)CC(F)(F)F` [Example 97, 2,2,2-trifluoro-N-{[(4αR,5S)-1-(4-fluorophenyl)-4α-methyl-1,4,4α,5,6,7-hexahydrocyclopenta[f]indazol-5-yl]methyl}-N-(2-methoxyethyl)ethanesulfonamide]: the inhibitory constant (Ki) came to 0.3 nM.

For orientation: Ki means the equilibrium dissociation constant of an inhibitor or competing ligand from its target. Read a low Ki as higher affinity.
